Results: ChEMBL document CHEMBL1132957, “Design of potent dicyclic (4-10/5-8) gonadotropin releasing hormone (GnRH) antagonists” (J Med Chem, 2000)
Each block holds one compound with its values, some of them ahead of it. Activity calls are given as the source filed them. The rule behind the calls is not given here. Positions of bridges follow the written chain, without caps; N, C: chain ends. Non-standard residues stand in square brackets, D forms with d. Residues, ends and D or L forms follow the SMILES beside them. dPhe(4-Cl) = N[C@H](Cc1ccc(Cl)cc1)C(=O)O; d2Nal = N[C@H](Cc1ccc2ccccc2c1)C(=O)O; d3Pal = N[C@H](Cc1cccnc1)C(=O)O; Dab = NCC[C@H](N)C(=O)O; Dap = NC[C@H](N)C(=O)O

Experiments:
Rattus norvegicus [1] = test: Evaluated for the ovulation effects in the rat by administering the drug at the doses (10 ug); 5/5; format: functional, organism-based
[2] = target: T1, Gonadotropin-releasing hormone receptor (Rattus norvegicus, UniProt P30969); test: Competitive radioligand binding assay, in human HEK293 cells stably transfected with the rat Gonadotropin-releasing hormone receptor; format: cell-based
T1 sequence (P30969 whole entry): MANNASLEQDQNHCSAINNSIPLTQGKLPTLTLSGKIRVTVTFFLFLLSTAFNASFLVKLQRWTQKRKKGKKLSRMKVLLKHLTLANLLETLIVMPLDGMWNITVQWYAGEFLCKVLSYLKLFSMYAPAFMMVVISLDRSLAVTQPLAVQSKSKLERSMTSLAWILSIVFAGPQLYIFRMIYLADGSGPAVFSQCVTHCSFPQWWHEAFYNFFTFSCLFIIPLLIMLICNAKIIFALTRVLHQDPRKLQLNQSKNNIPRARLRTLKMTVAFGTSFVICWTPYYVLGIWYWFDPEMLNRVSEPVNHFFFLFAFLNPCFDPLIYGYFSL

Rattus norvegicus [3] = test: Evaluated for the ovulation effects in the rat by administering the drug at the doses (25 ug); 0/8; format: functional, organism-based
Rattus norvegicus [4] = test: Evaluated for the ovulation effects in the rat by administering the drug at the doses (25 ug); 0/4; format: functional, organism-based
Rattus norvegicus [5] = test: Evaluated for the ovulation effects in the rat by administering the drug at the doses (5 ug); 3/3; format: functional, organism-based
Rattus norvegicus [6] = test: Evaluated for the ovulation effects in the rat by administering the drug at the doses (25 ug); 0/5; format: functional, organism-based
Rattus norvegicus [7] = test: Evaluated for the ovulation effects in the rat by administering the drug at the doses (10 ug); 4/6; format: functional, organism-based
Rattus norvegicus [8] = test: Evaluated for the ovulation effects in the rat by administering the drug at the doses (2.5 ug); 14/16; format: functional, organism-based
Rattus norvegicus [9] = test: Evaluated for the ovulation effects in the rat by administering the drug at the doses (10 ug); 1/6; format: functional, organism-based
Rattus norvegicus [10] = test: Evaluated for the ovulation effects in the rat by administering the drug at the doses (25 ug); 0/3; format: functional, organism-based
Rattus norvegicus [11] = test: Evaluated for the ovulation effects in the rat by administering the drug at the doses (50 ug); 0/7; format: functional, organism-based
Rattus norvegicus [12] = test: Evaluated for the ovulation effects in the rat by administering the drug at the doses (25 ug); 4/5; format: functional, organism-based

Compound: CC(=O)N[C@H](Cc1ccc2ccccc2c1)C(=O)N[C@H](Cc1ccc(Cl)cc1)C(=O)N[C@H](Cc1cccnc1)C(=O)N[C@H]1CC(=O)NC[C@@H](C(N)=O)NC(=O)[C@@H]2CCCN2C(=O)[C@@H]2CCCNC(=O)[C@H](Cc3ccccc3)NC(=O)CC[C@H](NC1=O)C(=O)N[C@H](CCCN=C(N)N)C(=O)N[C@@H](CC(C)C)C(=O)N2
Activity (Rattus norvegicus [1]): inactive
Ki [2]: 0.27 nM
Activity (Rattus norvegicus [3]): Active

Compound: CC[C@H](NC(C)=O)C(=O)N[C@@H](Cc1ccc(Cl)cc1)C(=O)N[C@@H](Cc1c[nH]c2ccccc12)C(=O)N[C@@H](CC(=O)O)C(=O)N[C@@H]1CCC(=O)NCCCC[C@@H](C(=O)N2CCC[C@@H]2C(=O)N[C@@H](C)C(N)=O)NC(=O)[C@H](CC(C)C)NC(=O)[C@@H](CCCN=C(N)N)NC1=O (stereo in doubt; 13)
Activity (Rattus norvegicus [11]): Active
Activity (Rattus norvegicus [12]): Weak activity

Further compounds by falling Ki [2], results first:

Ki [2]: 0.35 nM
Compound: CC(=O)N[C@H](Cc1ccc2ccccc2c1)C(=O)N[C@H](Cc1ccc(Cl)cc1)C(=O)N[C@H](Cc1cccnc1)C(=O)N[C@H]1CC(=O)NC[C@@H](C(N)=O)NC(=O)[C@@H]2CCCN2C(=O)[C@@H]2CCNC(=O)CNC(=O)C[C@H](NC1=O)C(=O)N[C@H](CCCN=C(N)N)C(=O)N[C@@H](CC(C)C)C(=O)N2
Activity (Rattus norvegicus [5]): inactive
Activity (Rattus norvegicus [6]): Active
Activity (Rattus norvegicus [7]): Weak activity

Ki [2]: 0.2 nM
Compound: CC(=O)N[C@H](Cc1ccc2ccccc2c1)C(=O)N[C@H](Cc1ccc(Cl)cc1)C(=O)N[C@H](Cc1cccnc1)C(=O)N[C@H]1CC(=O)NC[C@@H](C(N)=O)NC(=O)[C@@H]2CCCN2C(=O)[C@@H]2CCNC(=O)[C@H](Cc3ccccc3)NC(=O)CC[C@H](NC1=O)C(=O)N[C@H](CCCNC(N)=O)C(=O)N[C@@H](CC(C)C)C(=O)N2
Activity (Rattus norvegicus [4]): Active
Activity (Rattus norvegicus [1]): inactive

Ki [2]: 0.16 nM
Compound: CC(=O)N[C@H](Cc1ccc2ccccc2c1)C(=O)N[C@H](Cc1ccc(Cl)cc1)C(=O)N[C@H](Cc1cccnc1)C(=O)N[C@H]1CC(=O)NC[C@@H](C(N)=O)NC(=O)[C@@H]2CCCN2C(=O)[C@@H]2CCNC(=O)CNC(=O)CC[C@H](NC1=O)C(=O)N[C@H](CCCN=C(N)N)C(=O)N[C@@H](CC(C)C)C(=O)N2 (Ac-[d2Nal][dPhe(4-Cl)][d3Pal]DE[dR]L[Dab]P[Dap]-NH2; lactam 4-10; linker 5-8 via G)
Activity (Rattus norvegicus [8]): Weak activity
Activity (Rattus norvegicus [9]): Weak activity
Activity (Rattus norvegicus [10]): Active
